Active and inactive are the calls of the source. The rule behind the calls is not given here.
system: M. avium growth inhibition, 10 uM; experiment: microbial growth inhibition plus red cell haemolysis – Idler compounds, first plate, PMBN-permeabilized strains, profiling panel (AID 2061108); design: haemolysis: dose or concentration left out as unconfirmed; details: M. avium growth inhibition, 10 µM

Row | SMILES | inhibition [%]
1 | O=C(NCCn1ccc2ccccc21)Nc1c[nH]c2ccccc12 | 1.09
2 | COc1cc2nc(NCCCN(C)C)nc(N3CC(N(C)C)C3)c2cc1OC | 5.58
3 | CS(=O)(=O)CCCNC[C@@H](O)c1ccccc1 | 0.187
4 | COc1ccc(-c2nc(N3CCC(N(C)C)C3)c3cc(OC)c(OC)cc3n2)cc1 (stereo not drawn) | 3.41
5 | O=C(Nc1ccc(-c2nn[nH]n2)cc1)c1ccc(Oc2ccccc2)cc1 | -1.24
6 | O=C(N/N=C/c1ccncc1O)c1ccncc1 | -1.89
7 | CN(C)C(=O)c1cncc(-c2cccc(C3(C#N)CC3)c2)c1 | 0.148

system: S. aureus ATCC 9144 growth inhibition, 100 uM; experiment: as above; design: haemolysis: dose or concentration left out as unconfirmed; details: S. aureus ATCC 9144 growth inhibition; at 100 µM; stronger effect = higher value

Row | SMILES | inhibition
8 | COc1cc2nc(Nc3cc(C)[nH]n3)nc(NC3CCN(C(=O)OC(C)(C)C)CC3)c2cc1OC | 99.8%
9 | N#Cc1c(N2C[C@@H](CC(N)=O)[C@H](O)C2)nc2ccccc2c1C(F)(F)F | 9.67% (inactive)
10 | CCC(C)C(N)C(=O)NS(=O)(=O)c1cccc(-c2cc3ncnc(N)c3s2)c1 (stereo not drawn) | -39.6% (inactive)
11 | COc1ccc2c(c1)nc(-c1c[nH]c3cc(N4CCOCC4)ccc13)c1[nH]ccc12 | 101%
12 | CC(N)C(=O)NS(=O)(=O)c1cccc(-c2cc3ncnc(N)c3s2)c1 (stereo not drawn) | -35.4% (inactive)
13 | O=C(Nc1ccc(OC2CCCCC2)cc1)c1ccc(-c2nn[nH]n2)cc1 | 7.17% (inactive)
14 | Nc1ncnc2cc(-c3cccc(S(=O)(=O)NC(=O)C4CCCN4)c3)sc12 (stereo not drawn) | 48.7% (inactive)
15 | N#Cc1c(Cl)nc2ccccc2c1C(F)(F)F | 10% (inactive)
16 | CC(=O)NCCC(=O)NNC(=O)c1cc(-c2ccccn2)nc2ccccc12 | -6.67% (inactive)
17 | COc1cc(OC)cc(C2(NC(=O)c3ccc(N4CCOCC4)cc3)COC2)c1 | 11.7% (inactive)
18 | N#Cc1ccc(NC2Cc3cccc(O)c3C2)cc1Cl (stereo not drawn) | 100%
19 | CCn1c(SCC(=O)N(C)c2ccccc2)nnc1-c1cn(C)nc1OC | -11.4% (inactive)
20 | O=S(=O)(Nc1ccc(Oc2ccccc2)cc1)c1cccc(C(F)(F)F)c1 | 81.9%
21 | Oc1ccc(CN2CCN(c3ccccc3F)CC2)c2cccnc12 | 6.49%
22 | O=C(NC1(c2ccc(Cl)cc2)COC1)c1ccc(N2CCCCC2)cc1 | 4.21% (inactive)
23 | COc1cc2nc(Nc3cc(C)[nH]n3)nc(Nc3cc(C)[nH]n3)c2cc1OC | 37.5%
24 | O=C(N/N=C/C1CCOCC1)c1ccncc1 | 16% (inactive)
25 | O=C(NC1(c2ccc(Br)cc2)COC1)c1ccc(N2CCOCC2)cc1 | 5.33% (inactive)
26 | O=S(=O)(F)c1ncc(Cl)cc1Br | -14.2% (inactive)
27 | O=S(=O)(F)c1cccc(NCc2ccc(F)cc2)n1 | 13% (inactive)
28 | C=CC(=O)N1CCC[C@H](CC(=O)O)C1 | 14.4% (inactive)
29 | O=C(NCCn1ccc2ccccc21)Nc1c[nH]c2ccccc12 | 1.75% (inactive)
30 | COc1cc2nc(NCCCN(C)C)nc(N3CC(N(C)C)C3)c2cc1OC | 37.5% (inactive)
31 | CS(=O)(=O)CCCNC[C@@H](O)c1ccccc1 | 14.7% (inactive)
32 | COc1ccc(-c2nc(N3CCC(N(C)C)C3)c3cc(OC)c(OC)cc3n2)cc1 (stereo not drawn) | 10.4% (inactive)
33 | O=C(Nc1ccc(-c2nn[nH]n2)cc1)c1ccc(Oc2ccccc2)cc1 | 16.2% (inactive)
34 | O=C(N/N=C/c1ccncc1O)c1ccncc1 | 22% (inactive)
35 | CN(C)C(=O)c1cncc(-c2cccc(C3(C#N)CC3)c2)c1 | 4.91% (inactive)

system: red blood cell haemolysis; experiment: as above; design: haemolysis: dose or concentration left out as unconfirmed; details: stronger effect = higher value; dose or concentration not given here

Row | SMILES | haemolysis [%]
36 | COc1cc2nc(Nc3cc(C)[nH]n3)nc(NC3CCN(C(=O)OC(C)(C)C)CC3)c2cc1OC | 2.1
37 | N#Cc1c(N2C[C@@H](CC(N)=O)[C@H](O)C2)nc2ccccc2c1C(F)(F)F | 0.173
38 | CCC(C)C(N)C(=O)NS(=O)(=O)c1cccc(-c2cc3ncnc(N)c3s2)c1 (stereo not drawn) | 0.094
39 | COc1ccc2c(c1)nc(-c1c[nH]c3cc(N4CCOCC4)ccc13)c1[nH]ccc12 | 0.675
40 | CC(N)C(=O)NS(=O)(=O)c1cccc(-c2cc3ncnc(N)c3s2)c1 (stereo not drawn) | 0.129
41 | O=C(Nc1ccc(OC2CCCCC2)cc1)c1ccc(-c2nn[nH]n2)cc1 | 0.0779
42 | Nc1ncnc2cc(-c3cccc(S(=O)(=O)NC(=O)C4CCCN4)c3)sc12 (stereo not drawn) | 0.251
43 | N#Cc1c(Cl)nc2ccccc2c1C(F)(F)F | 0.129
44 | CC(=O)NCCC(=O)NNC(=O)c1cc(-c2ccccn2)nc2ccccc12 | 0.542
45 | COc1cc(OC)cc(C2(NC(=O)c3ccc(N4CCOCC4)cc3)COC2)c1 | -0.148
46 | N#Cc1ccc(NC2Cc3cccc(O)c3C2)cc1Cl (stereo not drawn) | 0.539
47 | CCn1c(SCC(=O)N(C)c2ccccc2)nnc1-c1cn(C)nc1OC | 0.564
48 | O=S(=O)(Nc1ccc(Oc2ccccc2)cc1)c1cccc(C(F)(F)F)c1 | 1.23
49 | Oc1ccc(CN2CCN(c3ccccc3F)CC2)c2cccnc12 | 1.25
50 | O=C(NC1(c2ccc(Cl)cc2)COC1)c1ccc(N2CCCCC2)cc1 | 0.302
51 | COc1cc2nc(Nc3cc(C)[nH]n3)nc(Nc3cc(C)[nH]n3)c2cc1OC | 0.208
52 | O=C(N/N=C/C1CCOCC1)c1ccncc1 | 1.63
53 | O=C(NC1(c2ccc(Br)cc2)COC1)c1ccc(N2CCOCC2)cc1 | 0.177
54 | O=S(=O)(F)c1ncc(Cl)cc1Br | 0.564
55 | O=S(=O)(F)c1cccc(NCc2ccc(F)cc2)n1 | -0.396
56 | C=CC(=O)N1CCC[C@H](CC(=O)O)C1 | -0.0261
57 | O=C(NCCn1ccc2ccccc21)Nc1c[nH]c2ccccc12 | 0.223
58 | COc1cc2nc(NCCCN(C)C)nc(N3CC(N(C)C)C3)c2cc1OC | 0.15
59 | CS(=O)(=O)CCCNC[C@@H](O)c1ccccc1 | 0.325
60 | COc1ccc(-c2nc(N3CCC(N(C)C)C3)c3cc(OC)c(OC)cc3n2)cc1 (stereo not drawn) | 0.312
61 | O=C(Nc1ccc(-c2nn[nH]n2)cc1)c1ccc(Oc2ccccc2)cc1 | -0.191
62 | O=C(N/N=C/c1ccncc1O)c1ccncc1 | -0.102
63 | CN(C)C(=O)c1cncc(-c2cccc(C3(C#N)CC3)c2)c1 | 0.107
